The target in the series is ATP-dependent translocase ABCB1 (Homo sapiens, UniProt P08183). Nature of the series: TP_TRANSPORTER: inhibition of Daunorubicin transport in G185 cells. The series is classed as functional, cell-based. Conditions: mouse.

This passage reports Activity results from ChEMBL document CHEMBL2074078, “Interaction of common azole antifungals with P glycoprotein” (Antimicrob Agents Chemother, 2002).

ATP-dependent translocase ABCB1, sequence (P08183 whole entry): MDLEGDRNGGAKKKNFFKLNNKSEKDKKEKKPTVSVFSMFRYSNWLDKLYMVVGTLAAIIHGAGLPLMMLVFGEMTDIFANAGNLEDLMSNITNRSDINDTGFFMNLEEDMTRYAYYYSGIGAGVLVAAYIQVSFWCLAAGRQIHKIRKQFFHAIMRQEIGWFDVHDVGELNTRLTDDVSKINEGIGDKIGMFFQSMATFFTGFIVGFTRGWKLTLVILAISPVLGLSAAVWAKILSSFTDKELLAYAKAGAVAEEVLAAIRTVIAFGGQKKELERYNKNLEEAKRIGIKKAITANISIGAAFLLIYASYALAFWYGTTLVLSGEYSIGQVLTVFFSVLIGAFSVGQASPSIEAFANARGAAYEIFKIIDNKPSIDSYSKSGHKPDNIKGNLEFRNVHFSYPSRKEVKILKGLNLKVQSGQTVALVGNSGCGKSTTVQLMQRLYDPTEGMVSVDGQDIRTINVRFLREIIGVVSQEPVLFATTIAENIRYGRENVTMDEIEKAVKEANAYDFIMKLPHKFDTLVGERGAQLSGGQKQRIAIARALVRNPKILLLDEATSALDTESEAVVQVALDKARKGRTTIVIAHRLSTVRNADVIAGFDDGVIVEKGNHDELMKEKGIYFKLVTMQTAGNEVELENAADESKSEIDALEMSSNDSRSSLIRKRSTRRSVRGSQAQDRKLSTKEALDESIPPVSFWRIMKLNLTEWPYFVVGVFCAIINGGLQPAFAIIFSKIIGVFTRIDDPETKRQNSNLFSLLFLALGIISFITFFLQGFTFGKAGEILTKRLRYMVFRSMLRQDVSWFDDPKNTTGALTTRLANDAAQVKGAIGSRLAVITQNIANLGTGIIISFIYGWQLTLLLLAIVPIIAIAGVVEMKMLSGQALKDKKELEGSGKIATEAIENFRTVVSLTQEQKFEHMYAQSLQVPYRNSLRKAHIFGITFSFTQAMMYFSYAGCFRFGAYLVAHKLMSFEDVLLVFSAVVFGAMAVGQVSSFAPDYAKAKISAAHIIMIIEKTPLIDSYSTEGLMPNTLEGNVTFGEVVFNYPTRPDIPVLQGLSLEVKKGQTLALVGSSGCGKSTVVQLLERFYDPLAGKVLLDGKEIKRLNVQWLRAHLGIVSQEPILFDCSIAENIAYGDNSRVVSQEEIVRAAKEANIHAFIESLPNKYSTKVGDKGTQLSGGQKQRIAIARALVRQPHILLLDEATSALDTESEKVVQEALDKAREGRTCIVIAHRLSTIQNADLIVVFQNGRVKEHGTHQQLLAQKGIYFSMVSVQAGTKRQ

In the case of `OC(Cn1cncn1)(Cn1cncn1)c1ccc(F)cc1F` [FLUCONAZOLE], the Activity result was “is not an inhibitor [-]”.
